From patent publication US8846670B2, “1,2,3,4-tetrahydro-pyrimido(1,2-a)pyrimidin-6-one derivatives, preparation thereof, and pharmaceutical use thereof” (priority 2009, dated 2014)

Assays:
Type in all cases: cell-based
[1] = test system: translocation of the LC3 protein in Hela GFP-LC3 cells; test: Study of the translocation of the LC3 protein in Hela human cells, measured by image analysis cytometry (Test C, autophagy); conditions: Homo sapiens, HeLa, 2 h, Hela GFP-LC3 cells with LC3 granulations, EBSS + 10 μM hydroxychloroquine, absolute IC50
Protocol: The inhibitory activity of the molecules on autophagy is measured by the translocation of the LC3 protein from the cytoplasm to the autophagosomes. For this, Hela cells were transfected with a vector encoding the chimeric protein GFP-LC3. A Hela clone stably expressing the GFP-LC3 protein was selected.
Study of the Translocation of the LC3 Protein in Hela Human Cells, Measured by Image Analysis Cytometry (Test C):
On day 2, the cells are washed twice with EBSS (Sigma #E3024). The cells are then incubated in EBSS, 10 μM of hydroxychloroquine and test products for 2 h at 37° C. in the presence of 5% CO2. The molecules are diluted in dimethyl sulphoxide (DMSO Sigma #D2650), the final DMSO percentage being 0.1%.
After this incubation, the cells are fixed with 4% paraformaldehyde (Sigma #HT501128 4 L) for 10 min. […] The 96-well plates are then read with the iCyte image analysis cytometer (Compucyte).
Two independent experiments make it possible to calculate the mean of the IC50 values.

[2] = test system: AKT protein phosphorylated on serine 473 (pAKT-S473) in PC3 human prostate carcinoma line; test: Study of pAKT expression in PC3 human prostate carcinoma cells measured by western blotting (Test A); conditions: PC-3, 1 to 2 hours incubation, approximate absolute IC50, mean of two experiments
Protocol: The inhibitory activity of the molecules on AKT phosphorylation is measured either by western blotting using the technique described below, or by the MSD Multi-spot Biomarker detection technique from Meso Scale Discovery also described below. […] Study of pAKT Expression in Pc3Human Prostate Carcinoma Cells Measured by Western Blotting (Test A): This test is based on measuring the expression of the AKT protein phosphorylated on […]. […] On day 2, the cells are incubated in the presence or absence of the test products for 1 to 2 hours at 37° C. in the presence of 5% CO2. The molecules, diluted in dimethyl sulphoxide (DMSO Sigma #D2650), are added from a 10-times concentrated stock solution, the final percentage of DMSO being 0.1%. […] After this incubation, the cells are lysed for the preparation of the proteins. […] The lysate is centrifuged for 10 min at 6000 rpm. 155 μl of supernatant are recovered. 150 μl are incubated for denaturation for 5 min at 95° C. in the presence of 4× NuPAGE LDS Sample Buffer diluted 4-fold (InVitrogen ref NP0007) and of 10× NuPAGE Sample Reducing Agent diluted 10-fold (InVitrogen ref NP0009). These samples are then frozen at -20° C. […] The gel is then transferred on to an Invitrolon PVDF membrane (Invitrogen #LC2007) permeabilised beforehand for a few seconds in ethanol (Ethanol Fischer Scientific #E/0600DF/15). The transfer is carried out in a Biorad tank at 30 volts overnight or at 60 volts for 3 hours, in the presence of 20× NUPAGE Transfer Buffer diluted 20-fold (InVitrogen ref NP0006). The membrane is then saturated in saturating solution composed of TBS (10× Tris Buffered Saline, Sigma #T5912, diluted 10-fold), 0.1% Tween 20 (Sigma #P5927) and 3% BSA (Bovine Serum Albumin Fraction V, Sigma #A4503) for 6 h after overnight transfer or else for 1 h after transfer for a period of 3 h. […] Two rinses for 5 min in washing solution composed of TBS and 0.1% Tween 20 are carried out before hybridisation of the secondary antibodies. The secondary antibodies are diluted to 1/10000th for the rabbit anti-Mouse IgG HRP antibody ([…] Promega) and to 1/10000th for the goat anti-Rabbit IgG HRP antibody ([…] Promega) in saturating solution, and then shaken for 1 h at ambient temperature. Two rinses for 30 min in washing solution are carried out and then a rinse for 5 min in H2O is carried out in order to eliminate the remaining Tween 20. […] The luminescence is read with the FujiFilm device (Ray Test). The FUJI device measures the total luminescence signal obtained (AU) for each band selected. It then subtracts the background noise (BG) proportional to the size of the band selected (Area), said background noise being calculated from a specific background noise band, with a view to obtaining the specific signal (AU-BG) for each band. The band obtained in the absence of product and in the presence of 0.1% DMSO is considered to be the 100% signal. The software calculates the % specific activity (Ratio) obtained for each band selected as a function of this 100% signal. The percentage inhibition is calculated for each concentration according to the formula (100%-Ratio). Two independent experiments make it possible to calculate the mean of the percentages of inhibition obtained at a given concentration for the products tested only at one concentration. […] Two independent experiments make it possible to calculate the mean of the IC50 values.

[3] = test system: P. falciparum (highly chloroquine-resistant strain Fcm29-Cameroon); test: Antimalarial activity test (radioactive micromethod of Desjardins); conditions: Plasmodium falciparum, Erythrocyte, infected human erythrocytes, 48 h, tritiated hypoxanthine incorporation
Protocol: Antimalarial Activity Test
The P. falciparum strains are cultured in solutions of RPM! […] For each assay, the parasites are incubated with selected concentrations of drugs for 48 h at 37° C. in a humid atmosphere and at 5% CO2. Artemisinin, artesunate and also chloroquine diphosphate are used as reference molecules. The first dilution of the drug is prepared at 1 mg/ml in dimethyl sulphoxide. The range of successive daughter solution dilutions is also prepared in dimethyl sulphoxide. […] These dilutions are then added to the parasites in culture in the microplates. […] The growth of the parasites is measured by incorporation of tritiated hypoxanthine (added 24 h after the beginning of the exposure to the drug) compared with the incorporation in the absence of drug.

[4] = test system: AKT protein phosphorylated on serine 473 (P-AKT-S473) in PC3 human prostate carcinoma line; test: Study of pAKT expression in PC3 human prostate carcinoma cells measured by the MSD Multi-spot Biomarker Detection technique (Test B); conditions: Homo sapiens, PC-3, P-AKT-S473 in PC3 cells, MSD sandwich immunoassay, 1 to 2 h incubation; absolute IC50, mean of 2 experiments
Protocol: The inhibitory activity of the molecules on AKT phosphorylation is measured either by western blotting using the technique described below, or by the MSD Multi-spot Biomarker detection technique from Meso Scale Discovery also described below.
Study of pAKT Expression in PC3Human Prostate Carcinoma Cells Measured by the MSD Multi-Spot Biomarker Detection Technique from Meso Scale Discovery (Test B):
The primary antibody specific for P-AKT-S473 (Kit #K151CAD) is coated onto an electrode in each well of the 96-well plates of the MSD kit: after the addition of a protein lysate to each well, the signal is visualised by adding a secondary detection antibody labelled with an electrochemiluminescent compound. The procedure followed is that described in the kit.
On day 2, the cells are incubated in the presence or absence of the test products for 1 to 2 h at 37° C. in the presence of 5% of CO2. The molecules, diluted in dimethyl sulphoxide (DMSO Sigma #D2650), are added from a 20-times concentrated stock solution, the final percentage of DMSO being 0.1%.
After this incubation, the cells are lysed for the preparation of the proteins. […] At this stage, the plates containing the lysates can be frozen at −20° C. or at −80° C.
The wells of the 96-well plates of the MSD kit are saturated for 1 h at ambient temperature with the blocking solution of the MSD kit. Four washes are carried out with 150 μl of Tris Wash Buffer of the MSD kit. The lysates previously prepared are transferred into the 96-well multi-spot plates of the MSD kit and incubated for 1 h at ambient temperature, with shaking. Four washes are carried out with 150 μl of Tris Wash Buffer of the MSD kit. 25 μl of the MSD sulfo-tag detection antibody solution are added to the wells and incubated for 1 h at ambient temperature, with shaking. Four washes are carried out with 150 μl of Tris Wash Buffer of the MSD kit. 150 μl of Read Buffer of the MSD kit are added to the wells and the plates are read immediately on the S12400 instrument from Meso Scale Discovery.
The instrument measures a signal for each well. Wells without cells and containing the lysis buffer serve to determine the background noise that will be subtracted from all the measurements (min). The wells containing cells in the absence of product and in the presence of 0.1% DMSO are considered to be the 100% signal (max). The percentage inhibition is calculated for each concentration of test product according to the following formula: (1−((test−min)/(max−min)))×100.
2 independent experiments make it possible to calculate the mean of the IC50 values.

Row | IC50 [1] [nM] | IC50 [2] [nM] | IC50 [4] [nM] | Compound | inhibition at 0.1 µM [3] [%] | inhibition at 1 µM [3] [%]
1 | 187 | 41 |  | C[C@H](c1cccc(F)c1)N1c2nc(N3CCOCC3)cc(=O)n2CC[C@H]1C(F)(F)F (single isomer, unassigned) [Example 16, (8S)-9-[(1R or 1S)-1-(3-fluorophenyl)ethyl]-2-(morpholin-4-yl)-8-(trifluoromethyl)-6,7,8,9-tetrahydro-4H-pyrimido[1,2-a]pyrimidin-4-one] |  | 
2 | > 1000 | 2720 | 7 | O=c1cc(N2CCOCC2)nc2n1CC[C@@H](C(F)(F)F)N2c1ccccc1F [Example 15, (8S)-9-(2-fluorophenyl)-2-(morpholin-4-yl)-8-(trifluoromethyl)-6,7,8,9-tetrahydro-4H-pyrimido[1,2-a]pyrimidin-4-one] |  | 
3 | > 1000 | 60 |  | O=c1cc(N2CCOCC2)nc2n1CC[C@@H](C(F)(F)F)N2c1ccncc1 [Example 20, (S)-2-morpholin-4-yl-9-pyridin-4-yl-8-trifluoromethyl-6,7,8,9-tetrahydropyrimido[1,2-a]pyrimidin-4-one] |  | 
4 | 119 | 350 |  | O=c1cc(N2CCOCC2)nc2n1CC[C@@H](C(F)(F)F)N2Cc1ccc(F)cc1 [Example 17, (8S)-9-(4-fluorobenzyl)-2-(morpholin-4-yl)-8-(trifluoromethyl)-6,7,8,9-tetrahydro-4H-pyrimido[1,2-a]pyrimidin-4-one] |  | 
5 | 441 | 6600 |  | O=c1cc(N2CCOCC2)nc2n1CC[C@@H](C(F)(F)F)N2c1ccccc1 [Example 12, (8S)-2-(morpholin-4-yl)-9-phenyl-8-(trifluoromethyl)-6,7,8,9-tetrahydro-4H-pyrimido[1,2-a]pyrimidin-4-one] |  | 59
6 | > 1000 | 335 |  | O=C(c1ccccc1)N1c2nc(N3CCOCC3)cc(=O)n2CC[C@H]1C(F)(F)F [Example 18, (S)-9-Benzoyl-2-morpholin-4-yl-8-trifluoromethyl-6,7,8,9-tetrahydropyrimido[1,2-a]pyrimidin-4-one] |  | 

Second part, the molecule before the results:

Row | Compound | IC50 [1] [nM] | IC50 [2] [nM] | IC50 [4] [nM] | inhibition at 0.1 µM [3] [%] | inhibition at 1 µM [3] [%]
7 | COc1ccc(CCN2c3nc(N4CCOCC4)cc(=O)n3CC[C@H]2C(F)(F)F)cc1 [Example 1, (S)-9-[2-(4-methoxyphenyl)ethyl]-2-morpholin-4-yl-8-trifluoromethyl-6,7,8,9-tetrahydropyrimido[1,2-a]pyrimidin-4-one] | 11 | 15 |  | 79 | 99
8 | C[C@@H](c1ccccc1)N1c2nc(N3CCOCC3)cc(=O)n2CC[C@H]1C(F)(F)F (single isomer, unassigned) [Example 8, (8S)-2-(morpholin-4-yl)-9-[(1R or 1S)-1-phenylethyl]-8-(trifluoromethyl)-6,7,8,9-tetrahydro-4H-pyrimido[1,2-a]pyrimidin-4-one] | 462 | 75 |  |  | 
9 | COc1ccc(C(C)N2c3nc(N4CCOCC4)cc(=O)n3CC[C@H]2C(F)(F)F)cc1 (mixture of isomers) [Example 9, (8S)-9-[(1R and 1S)-1-(4-methoxyphenyl)ethyl]-2-(morpholin-4-yl)-8-(trifluoromethyl)-6,7,8,9-tetrahydro-4H-pyrimido[1,2-a]pyrimidn-4-one] |  | 676 |  |  | 
10 | C[C@@H](c1ccc(Br)cc1)N1c2nc(N3CCOCC3)cc(=O)n2CC[C@H]1C(F)(F)F (single isomer, unassigned) [Example 10, (8S)-9-[R1R or 1S)-1-(4-bromophenyl)ethyl]-2-(morpholin-4-yl)-8-(trifluoromethyl)-6,7,8,9-tetrahydro-4H-pyrimido[1,2-a]pyrimidin-4-one] | 249 | 357 |  |  | 
11 | COc1ccc(CCN2c3nc(N4CCOCC4)cc(=O)n3CCC2C(F)(F)F)cc1 (racemic) [Example 2, (R,S)-9-[2-(4-methoxyphenyl)ethyl]-2-morpholin-4-yl-8-trifluoromethyl-6,7,8,9-tetrahydropyrimido[1,2-a]pyrimidin-4-one] | 16 | 315 |  |  | 
12 | O=c1cc(N2CCOCC2)nc2n1CC[C@@H](C(F)(F)F)N2Cc1ccccc1 [Example 4, (S)-9-benzyl-2-morpholin-4-yl-8-trifluoromethyl-6,7,8,9-tetrahydropyrimido[1,2-a]pyrimidin-4-one] | 569 | 265 |  | 19 | 97
13 | O=c1cc(N2CCOCC2)nc2n1CC[C@@H](C(F)(F)F)N2CCc1ccccc1 [Example 3, (S)-2-morpholin-4-yl-9-phenethyl-8-trifluoromethyl-6,7,8,9-tetrahydropyrimido[1,2-a]pyrimidin-4-one] | 20 | 15 |  |  | 
